Reference: patent publication US9133158B2, “Bicyclic dihydroisoquinoline-1-one derivatives” (Hoffmann-La Roche Inc., priority 2011, dated 2015)

Key:
[1] = biological target: T1, human CYP11B2 (Homo sapiens, UniProt P19099); experiment: G-402 cellular enzyme assay, human CYP11B2 (aldosterone release, HTRF); format: cell-based; conditions: G-402 cells, 1 μM Deoxycorticosterone
T1 construct: expressed in transfected cells
T1 sequence (P19099 25-503): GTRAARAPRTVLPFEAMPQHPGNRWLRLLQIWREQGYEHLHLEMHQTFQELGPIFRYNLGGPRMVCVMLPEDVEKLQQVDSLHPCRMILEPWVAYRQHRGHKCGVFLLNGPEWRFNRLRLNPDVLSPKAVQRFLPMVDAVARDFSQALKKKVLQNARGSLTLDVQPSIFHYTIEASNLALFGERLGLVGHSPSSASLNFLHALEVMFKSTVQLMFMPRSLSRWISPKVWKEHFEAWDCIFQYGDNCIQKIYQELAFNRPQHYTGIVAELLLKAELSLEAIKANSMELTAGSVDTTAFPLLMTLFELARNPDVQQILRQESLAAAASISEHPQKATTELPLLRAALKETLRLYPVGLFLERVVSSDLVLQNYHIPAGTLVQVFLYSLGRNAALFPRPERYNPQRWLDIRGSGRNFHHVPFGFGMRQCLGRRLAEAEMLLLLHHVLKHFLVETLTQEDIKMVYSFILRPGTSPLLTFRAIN
Method in brief: (§1)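 Inhibition of steroid release was taken as enzyme inhibition. CYP11B1 assays used 1 μM deoxycortisol with cortisol detection, CYP11B2 assays 1 μM deoxycorticosterone with aldosterone detection, both by HTRF after 16 h in stable G-402 cells; EC50 from least-squares MMF fit.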

[2] = biological target: T2, human CYP11B1 (Homo sapiens, UniProt P15538); experiment: G-402 cellular enzyme assay, human CYP11B1 (cortisol release, HTRF); format: cell-based; conditions: G-402 cells, 1 μM Deoxycortisol
T2 construct: expressed in transfected cells
T2 sequence (P15538 25-503): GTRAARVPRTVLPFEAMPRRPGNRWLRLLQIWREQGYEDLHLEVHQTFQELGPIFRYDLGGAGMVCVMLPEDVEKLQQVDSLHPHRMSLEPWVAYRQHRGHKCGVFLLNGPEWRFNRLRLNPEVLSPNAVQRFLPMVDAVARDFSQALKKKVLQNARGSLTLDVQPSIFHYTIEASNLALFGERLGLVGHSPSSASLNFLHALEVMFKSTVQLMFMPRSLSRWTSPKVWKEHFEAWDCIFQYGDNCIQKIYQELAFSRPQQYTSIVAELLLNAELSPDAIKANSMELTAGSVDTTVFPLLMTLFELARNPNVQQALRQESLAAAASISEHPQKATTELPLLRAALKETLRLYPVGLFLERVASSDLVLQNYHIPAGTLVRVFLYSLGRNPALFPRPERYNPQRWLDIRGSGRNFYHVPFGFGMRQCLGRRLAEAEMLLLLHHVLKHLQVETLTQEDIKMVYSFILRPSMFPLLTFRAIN
Method in brief: as §1

O=C1c2ccc(Cl)cc2CCN1c1cncc(CN2CCS(=O)(=O)CC2)c1 [Example 156, 6-Chloro-2-[5-(1,1-dioxo-1λ^6-thiomorpholin-4-ylmethyl)-pyridin-3-yl]-3,4-dihydro-2H-isoquinolin-1-one] showed an EC50 [1] of 43.9 nM and an EC50 [2] of 337 nM.

Compound CC[C@H]1c2cc(Cl)ccc2C(=O)N1c1cncc2c1CCC[C@@H]2NC(C)=O (single isomer, unassigned) [Example 356, N-[(S or R)-4-((S or R)-5-Chloro-3-ethyl-1-oxo-1,3-dihydro-isoindol-2-yl)-5,6,7,8-tetrahydro-isoquinolin-8-yl]-acctamide] has an EC50 [1] of 2000 nM and an EC50 [2] of 737 nM.

For CC1(C)c2cc(Cl)ccc2C(=O)N1c1cncc(CN2CCNC2=O)c1 [Example 411, 5-Chloro-3,3-dimethyl-2-[5-(2-oxo-imidazolidin-1-ylmethyl)-pyridin-3-yl]-2,3-dihydro-isoindol-1-one], the EC50 [1] was 19.6 nM and the EC50 [2] was 772 nM.

For O=C(c1cncc(N2CCc3cc(Cl)ccc3C2=O)c1)N1CCCC1 [Example 42, 6-Chloro-2-[5-(pyrrolidine-1-carbonyl)-pyridin-3-yl]-3,4-dihydro-2H-isoquinolin-1-one], the EC50 [1] was 327 nM and the EC50 [2] was 7860 nM.

CC1(C)c2cc(Cl)ccc2C(=O)N1c1cncc(CN2CCOC2=O)c1 [Example 412, 5-Chloro-3,3-dimethyl-2-[5-(2-oxo-oxazolidin-3-ylmethyl)-pyridin-3-yl]-2,3-dihydro-isoindol-1-one] showed an EC50 [1] of 46.6 nM and an EC50 [2] of 1670 nM.

O=C1c2ccc(Cl)cc2CCN1c1cncc(Cn2ccnc2)c1 [Example 140, 6-Chloro-2-(5-imidazol-1-ylmethyl-pyridin-3-yl)-3,4-dihydro-2H-isoquinolin-1-one] gave an EC50 [1] of 11.8 nM and an EC50 [2] of 70.4 nM.

CN1CCN(Cc2cncc(N3CCc4cc(Cl)ccc4C3=O)c2)CC1 [Example 167, 6-Chloro-2-[5-(4-methyl-piperazin-1-ylmethyl)-pyridin-3-yl]-3,4-dihydro-2H-isuquinolin-1-one] showed an EC50 [1] of 47.9 nM and an EC50 [2] of 168 nM.

COc1ccc2c(n1)C(C)(C)N(c1cccnc1)C2=O [Example 300, 2-Methoxy-7,7-dimethyl-6-pyridin-3-yl-6,7-dihydro-pyrrolo[3,4-b]pyridin-5-one] showed an EC50 [1] of 216 nM and an EC50 [2] of 14300 nM.

CN(Cc1cncc(N2C(=O)c3ccc(Cl)cc3C2(C)C)c1)S(C)(=O)=O [Example 392, N-[5-(6-Chloro-1,1-dimethyl-3-oxo-1,3-dihydro-isoindol-2-yl)-pyridin-3-ylmethyl]-N-methyl-methane-sulfonamide] gave an EC50 [1] of 9.2 nM and an EC50 [2] of 327 nM.

Compound O=C1CCCN1Cc1cncc(N2Cc3cc(Cl)ccc3C2=O)c1 [Example 112, 5-Chloro-2-[5-(2-oxo-pyrrolidin-1-ylmethyl)-pyridin-3-yl]-2,3-dihydro-isoindol-1-one] has an EC50 [1] of 674 nM and an EC50 [2] of 12000 nM.

Work on CS(=O)(=O)NC1CCCc2c1cncc2N1Cc2cc(Cl)ccc2C1=O (single isomer, unassigned) [Example 326, N-[(S or R)-4-(5-Chloro-1-oxo-1,3-dihydro-isoindol-2-yl)-5,6,7,8-tetrahydro-isoquinolin-8-yl]-methanesulfonamide] yielded an EC50 [1] of 1870 nM and an EC50 [2] of 6610 nM.

For Cc1n[nH]cc1-c1cncc(N2CCc3cc(Cl)ccc3C2=O)c1 [Example 419, 6-Chloro-2-[5-(3-methyl-1H-pyrazol-4-yl)-pyridin-3-yl]-3,4-dihydro-2H-isoquinolin-1-one], the EC50 [1] was 9.1 nM and the EC50 [2] was 122 nM.

O=C1c2ccc(Cl)cc2CCN1c1cncc(CN2C(=O)CC[C@H]2CO)c1 [Example 83, 6-Chloro-2-[5-((S)-2-hydroxymethyl-5-oxo-pyrrolidin-1-ylmethyl)-pyridin-3-yl]-3,4-dihydro-2H-isoquinolin-1-one] was tested, and the EC50 [1] was 590 nM and the EC50 [2] was 15700 nM.

With CC1(C)c2cc(Cl)ccc2C(=O)N1c1cncc(CN2CCCC2=O)c1 [Example 413, 5-Chloro-3,3-dimethyl-2-[5-(2-oxo-pyrrolidin-1-ylmethyl)-pyridin-3-yl]-2,3-dihydro-isoindol-1-one] the EC50 [1] was 20.7 nM and the EC50 [2] was 813 nM.

CC1(C)c2cc(C#N)ccc2C(=O)N1c1cncc(CNS(C)(=O)=O)c1 [Example 402, N-[5-(6-Cyano-1,1-dimethyl-3-oxo-1,3-dihydro-isoindol-2-yl)-pyridin-3-ylmethyl]-methane-sulfonamide] was tested, and the EC50 [1] was 34.2 nM and the EC50 [2] was 2210 nM.

CC(c1cncc(N2CCc3cc(Cl)ccc3C2=O)c1)n1nccn1 (centres unmarked) [Example 269, 6-Chloro-2-[5-(1-[1,2,3]triazol-2-yl-ethyl)-pyridin-3-yl]-3,4-dihydro-2H-isoquinolin-1-one] gave an EC50 [1] of 46.2 nM and an EC50 [2] of 425 nM.

In the case of O=C1c2ccc(Cl)cc2CCN1c1cncc(Cn2ccnn2)c1 [Example 175, 6-Chloro-2-(5-[1,2,3]triazol-1-ylmethyl-pyridin-3-yl)-3,4-dihydro-2H-isoquinolin-1-one], the EC50 [1] is reported as 105 nM and the EC50 [2] is reported as 656 nM.

With O=C1c2ccc(Cl)cc2CCN1c1cccnc1 [Example 1, 6-Chloro-2-pyridin-3-yl-3,4-dihydro-2H-isoquinolin-1-one] the EC50 [1] was 86 nM and the EC50 [2] was 4610 nM.

With O=C(Nc1cncc(N2CCc3cc(Cl)ccc3C2=O)c1)Nc1cccc(C(F)(F)F)c1 [Example 251, 1-[5-(6-Chloro-1-oxo-3,4-dihydro-1H-isoquinolin-2-yl)-pyridin-3-yl]-3-(3-trifluoromethyl-phenyl)-urea] the EC50 [1] was 5880 nM and the EC50 [2] was 15800 nM.

With CCC1c2cc(Cl)ccc2C(=O)N1c1cncc(CNS(=O)(=O)CC)c1 (single isomer, unassigned) [Example 390, Ethanesulfonic acid [5-((S or R)-5-chloro-3-ethyl-1-oxo-1,3-dihydro-isoindol-2-yl)-pyridin-3-ylmethyl]-amide] the EC50 [1] was 316 nM and the EC50 [2] was 5470 nM.

In the case of CC(=O)N[C@H]1CCCc2c1cncc2N1C(=O)c2ccc(Cl)cc2[C@@H]1C (single isomer, unassigned) [Example 365, N-[(S or R)-4-((S or R)-5-Chloro-3-methyl-1-oxo-1,3-dihydro-isoindol-2-yl)-5,6,7,8-tetrahydro-isoquinolin-8-yl]-acetamide], the EC50 [1] is reported as 337 nM and the EC50 [2] is reported as 15900 nM.

Compound O=C1c2ccc(Cl)cc2CCN1c1cncc(C(O)c2cc(F)cc(F)c2)c1 (centres unmarked) [Example 32, 6-Chloro-2-{5-[(3,5-difluoro-phenyl)-hydroxy-methyl]-pyridin-3-yl}-3,4-dihydro-2H-isoquinolin-1-one] has an EC50 [1] of 46.8 nM and an EC50 [2] of 514 nM.

With COc1ccc2c(n1)C(C)(C)N(c1cncc(CNc3cc[nH]n3)c1)C2=O [Example 384, 2-Methoxy-7,7-dimethyl-6-{5-[(1H-pyrazol-3-ylamino)-methyl]-pyridin-3-yl}-6,7-dihydro-pyrrolo[3,4-b]pyridin-5-one] the EC50 [1] was 24 nM and the EC50 [2] was 3160 nM.

O=C1c2ccc(Cl)cc2CCN1c1cncc(CN2CCC3(COC3)C2)c1 [Example 170, 6-Chloro-2-[5-(2-oxa-6-aza-spiro[3.4]oct-6-ylmethyl)-pyridin-3-yl]-3,4-dihydro-2H-isoquinolin-1-one] showed an EC50 [1] of 3.5 nM and an EC50 [2] of 14.6 nM.

For CCS(=O)(=O)NC1CCc2c1cncc2N1Cc2cc(Cl)ccc2C1=O (single isomer, unassigned) [Example 336, Ethanesulfonic acid [(R or S)-4-(5-chloro-1-oxo-1,3-dihydro-isoindol-2-yl)-6,7-dihydro-5H-[2]pyrindin-7-yl]-amide], the EC50 [1] was 949 nM and the EC50 [2] was 30000 nM.

COC(C)(C)c1cncc(N2CCc3cc(Cl)ccc3C2=O)c1 [Example 24, 6-Chloro-2-[5-(1-methoxy-1-methyl-ethyl)-pyridin-3-yl]-3,4-dihydro-2H-isoquinolin-1-one] showed an EC50 [1] of 5.6 nM and an EC50 [2] of 21.4 nM.

CC(=O)N[C@@H]1CCCc2c1cncc2N1C(=O)c2ccc(Cl)cc2[C@@H]1C (single isomer, unassigned) [Example 366, N-[(R or S)-4-((S or R)-5-Chloro-3-methyl-1-oxo-1,3-dihydro-isoindol-2-yl)-5,6,7,8-tetrahydro-isoquinolin-8-yl]-acetamide] gave an EC50 [1] of 4.4 nM and an EC50 [2] of 82 nM.

CCS(=O)(=O)N1CCC(Oc2cncc(N3C(=O)c4ccc(Cl)cc4C3(C)C)c2)C1 (centres unmarked) [Example 446, 5-Chloro-2-[5-(1-ethanesulfonyl-pyrrolidin-3-yloxy) -pyridin-3-yl]-3,3-dimethyl-2,3-dihydro-isoindol-1-one] gave an EC50 [1] of 185 nM and an EC50 [2] of 263 nM.
